Source: patent US20190031676A1, “ANTIBACTERIAL ANNULATED PYRROLIDIN-2-ONE DERIVATIVES” (priority 2015, published 2019)
Values after ≈ are worked out from the molar mass of the structure shown.

Tests used:
Assay in all cases: Bacterial growth minimal inhibitory concentration (microdilution, cation-adjusted Mueller-Hinton Broth)
Format in all cases: cell-based
E. coli ATCC25922 = details: quinolone-sensitive strain; for MIC: Escherichia coli, ATCC25922
Method: (§1) Minimal Inhibitory Concentrations (MICs; mg/L) were determined in cation-adjusted Mueller-Hinton Broth by a microdilution method following the description given in “Methods for Dilution Antimicrobial Susceptibility Tests for Bacteria that grow Aerobically”, Approved standard, 7th ed., Clinical and Laboratory Standards Institute (CLSI) Document M7-A7, Wayne, Pa., USA (2006).
(§2) All Example compounds were tested against several Gram-positive and Gram-negative bacteria. […] K. pneumoniae A-651 is a multiply-resistant strain (in particular quinolone-resistant), while E. coli ATCC25922 and P. aeruginosa ATCC27853 are quinolone-sensitive strains.

K. pneumoniae A-651 = details: multiply-resistant strain (in particular quinolone-resistant); for MIC: Klebsiella pneumoniae, A651
Method: as §1, §2

P. aeruginosa ATCC27853 = details: quinolone-sensitive strain; for MIC: Pseudomonas aeruginosa, ATCC27853
Method: as §1, §2

| MIC (E. coli ATCC25922) | MIC (K. pneumoniae A-651) | MIC (P. aeruginosa ATCC27853) | MIC for E. coli ATCC25922 (E. coli ATCC25922) | MIC for K. Pneumoniae A-651 (K. pneumoniae A-651) | MIC for P. aeruginosa ATCC27853 (P. aeruginosa ATCC27853) | SMILES |
| --- | --- | --- | --- | --- | --- | --- |
| 0.125 µg/mL (≈ 0.241 µM) | 0.25 µg/mL (≈ 0.481 µM) | 1 µg/mL (≈ 1.92 µM) | – | – | – | C[C@@](CCN1Cc2cc(C#CC#CC3CN(C4CCOCC4)C3)sc2C1=O)(C(=O)NO)S(C)(=O)=O [Example 27, (2R)—N-hydroxy-2-methyl-2-(methylsulfonyl)-4-(6-oxo-2-((1-(tetrahydro-2H-pyran-4-yl)azetidin-3-yl)buta-1,3-diyn-1-yl)-4,6-dihydro-5H-thieno[2,3-c]pyrrol-5-yl)butanamide] |
| 0.125 µg/mL (≈ 0.277 µM) | 0.063 µg/mL (≈ 0.14 µM) | 8 µg/mL (≈ 17.8 µM) | – | – | – | COc1ccc(-c2ccc3c(c2)CN(CC[C@](C)(C(=O)NO)S(C)(=O)=O)C3=O)c(F)c1 [Example 10, (2R)-4-(5-(2-fluoro-4-methoxyphenyl)-1-oxoisoindolin-2-yl)-N-hydroxy-2-methyl-2-(methylsulfonyl)butanamide] |
| 0.5 µg/mL (≈ 1.01 µM) | 1 µg/mL (≈ 2.03 µM) | 1 µg/mL (≈ 2.03 µM) | – | – | – | CN1C[C@@H](C#CC#Cc2cc3c(s2)C(=O)N(CC[C@](C)(C(=O)NO)S(C)(=O)=O)C3)C[C@@H]1CO [Example 36, (2R)—N-hydroxy-4-(2-(((3R,5R)-5-(hydroxymethyl)-1-methylpyrrolidin-3-yl)buta-1,3-diyn-1-yl)-6-oxo-4,6-dihydro-5H-thieno[2,3-c]pyrrol-5-yl)-2-methyl-2-(methylsulfonyl)butanamide] |
| 0.125 µg/mL (≈ 0.266 µM) | 0.5 µg/mL (≈ 1.06 µM) | 2 µg/mL (≈ 4.25 µM) | – | – | – | C[C@@](CCN1Cc2cc(C#Cc3ccc(CCO)cc3)ccc2C1=O)(C(=O)NO)S(C)(=O)=O [Example 33, (2R)—N-hydroxy-4-(5-((4-(2-hydroxyethyl)phenyl)ethynyl)-1-oxoisoindolin-2-yl)-2-methyl-2-(methylsulfonyl)butanamide] |
| – | – | – | 0.25 µg/mL | 0.25 µg/mL | 2 µg/mL | C[C@@](CCN1Cc2cc(C#Cc3ccc(C4CN(C5COC5)C4)cc3)sc2C1=O)(C(=O)NO)S(C)(=O)=O [Example 26, (2R)—N-hydroxy-2-methyl-2-(methylsulfonyl)-4-(2-((4-(1-(oxetan-3-yl)azetidin-3-yl)phenyl)ethynyl)-6-oxo-4,6-dihydro-H-thieno[2,3-c]pyrrol-5-yl)butanamide] |
| 0.25 µg/mL (≈ 0.494 µM) | 0.25 µg/mL (≈ 0.494 µM) | 1 µg/mL (≈ 1.98 µM) | – | – | – | C[C@@](CCN1Cc2cc(C#CC#CC3CN([C@H]4CCOC4)C3)sc2C1=O)(C(=O)NO)S(C)(=O)=O (single isomer, unassigned) [Example 38] |
| – | – | – | 0.5 µg/mL | 0.5 µg/mL | 1 µg/mL | C[C@@](CCN1Cc2cc(C#CC#CC3CN([C@H]4C[C@@H](O)C4)C3)sc2C1=O)(C(=O)NO)S(C)(=O)=O [Example 31, (2R)—N-hydroxy-4-(2-((1-((1s,3s)-3-hydroxycyclobutyl)azetidin-3-yl)buta-1,3-diyn-1-yl)-6-oxo-4,6-dihydro-5H-thieno[2,3-c]pyrrol-5-yl)-2-methyl-2-(methylsulfonyl)butanamide] |
| 1 µg/mL (≈ 1.99 µM) | 1 µg/mL (≈ 1.99 µM) | 2 µg/mL (≈ 3.97 µM) | – | – | – | C[C@@](CCN1Cc2cc(C#CC#CCOC(=O)N3CC(O)C3)ccc2C1=O)(C(=O)NO)S(C)(=O)=O [Example 9, (3R)-5-(2-(4-(hydroxyamino)-3-methyl-3-(methylsulfonyl)-4-oxobutyl)-1-oxoisoindolin-5-yl)penta-2,4-diyn-1-yl 3-hydroxyazetidine-1-carboxylate] |
| 0.125 µg/mL (≈ 0.277 µM) | 0.25 µg/mL (≈ 0.555 µM) | 0.5 µg/mL (≈ 1.11 µM) | – | – | – | C[C@@](CCN1Cc2cc(C#CC#C[C@@H]3C[C@H]3CO)sc2C1=O)(C(=O)NO)S(C)(=O)=O (single isomer, unassigned) [Example 1] |
| 0.063 µg/mL (≈ 0.131 µM) | 0.25 µg/mL (≈ 0.519 µM) | 1 µg/mL (≈ 2.08 µM) | – | – | – | C[C@@](CCN1Cc2cc(C#CC#CC3CN(CCF)C3)sc2C1=O)(C(=O)NO)S(C)(=O)=O [Example 23, (2R)-4-(2-((1-(2-fluoroethyl)azetidin-3-yl)buta-1,3-diyn-1-yl)-6-oxo-4,6-dihydro-5H-thieno[2,3-c]pyrrol-5-yl)-N-hydroxy-2-methyl-2-(methylsulfonyl)butanamide] |
| 1 µg/mL (≈ 2.25 µM) | 2 µg/mL (≈ 4.51 µM) | 1 µg/mL (≈ 2.25 µM) | – | – | – | CN1CC(C#CC#Cc2ccc3c(c2)CN(CC[C@](C)(C(=O)NO)S(C)(=O)=O)C3=O)C1 [Example 8, (2R)—N-hydroxy-2-methyl-4-(5-((1-methylazetidin-3-yl)buta-1,3-diyn-1-yl)-1-oxoisoindolin-2-yl)-2-(methylsulfonyl)butanamide] |
| 0.5 µg/mL (≈ 1.02 µM) | 4 µg/mL (≈ 8.14 µM) | 4 µg/mL (≈ 8.14 µM) | – | – | – | C[C@@](CCN1Cc2cc(C#CC#CC3CN(C4COC4)C3)sc2C1=O)(C(=O)NO)S(C)(=O)=O [Example 15, (2R)—N-hydroxy-2-methyl-2-(methylsulfonyl)-4-(2-((1-(oxetan-3-yl)azetidin-3-yl)buta-1,3-diyn-1-yl)-6-oxo-4,6-dihydro-5H-thieno[2,3-c]pyrrol-5-yl)butanamide] |
| 0.25 µg/mL (≈ 0.523 µM) | 0.5 µg/mL (≈ 1.05 µM) | 1 µg/mL (≈ 2.09 µM) | – | – | – | CC(C)N1CC(C#CC#Cc2cc3c(s2)C(=O)N(CC[C@](C)(C(=O)NO)S(C)(=O)=O)C3)C1 [Example 24, (R)—N-hydroxy-4-(2-((1-isopropylazetidin-3-yl)buta-1,3-diyn-1-yl)-6-oxo-4,6-dihydro-5H-thieno[2,3-c]pyrrol-5-yl)-2-methyl-2-(methylsulfonyl)butanamide] |
| 0.5 µg/mL (≈ 1.04 µM) | 2 µg/mL (≈ 4.17 µM) | 1 µg/mL (≈ 2.09 µM) | – | – | – | C[C@@](CCN1Cc2cc(C#CC#CC3CN(CCO)C3)sc2C1=O)(C(=O)NO)S(C)(=O)=O [Example 17, (2R)—N-hydroxy-4-(2-((1-(2-hydroxyethyl)azetidin-3-yl)buta-1,3-diyn-1-yl)-6-oxo-4,6-dihydro-5H-thieno[2,3-c]pyrrol-5-yl)-2-methyl-2-(methylsulfonyl)butanamide] |
| 0.25 µg/mL (≈ 0.574 µM) | 0.5 µg/mL (≈ 1.15 µM) | 1 µg/mL (≈ 2.3 µM) | – | – | – | C[C@@](CCN1Cc2cc(C#CC#CC3(N)CC3)sc2C1=O)(C(=O)NO)S(C)(=O)=O [Example 3, (2R)-4-(2-((1-aminocyclopropyl)buta-1,3-diyn-1-yl)-6-oxo-4,6-dihydro-5H-thieno[2,3-c]pyrrol-5-yl)-N-hydroxy-2-methyl-2-(methylsulfonyl)butanamide] |
| – | – | – | 0.5 µg/mL | 1 µg/mL | 1 µg/mL | C[C@@](CCN1Cc2cc(C#CC#C[C@H]3C[C@@H]3[C@@H](O)CO)sc2C1=O)(C(=O)NO)S(C)(=O)=O [Example 22, (2R)-4-(2-(((1S,2S)-2-((2R)-1,2-dihydroxyethyl)cyclopropyl)buta-1,3-diyn-1-yl)-6-oxo-4,6-dihydro-5H-thieno[2,3-c]pyrrol-5-yl)-N-hydroxy-2-methyl-2-(methylsulfonyl)butanamide] |
| – | – | – | 0.25 µg/mL | 0.5 µg/mL | 1 µg/mL | C[C@@](CCN1Cc2cc(C#CC#CC3CN(C(=O)OCCCO)C3)sc2C1=O)(C(=O)NO)S(C)(=O)=O [Example 34, 3-hydroxypropyl (2R)-3-((5-(4-(hydroxyamino)-3-methyl-3-(methylsulfonyl)-4-oxobutyl)-6-oxo-5,6-dihydro-4H-thieno[2,3-c]pyrrol-2-yl)buta-1,3-diyn-1-yl)azetidine-1-carboxylate] |
| 0.031 µg/mL (≈ 0.0597 µM) | 0.25 µg/mL (≈ 0.481 µM) | 2 µg/mL (≈ 3.85 µM) | – | – | – | C[C@@](CCN1Cc2cc(C#Cc3ccc(CN4CC(F)C4)cc3)sc2C1=O)(C(=O)NO)S(C)(=O)=O [Example 14, (2R)-4-(2-((4-((3-fluoroazetidin-1-yl)methyl)phenyl)ethynyl)-6-oxo-4,6-dihydro-5H-thieno[2,3-c]pyrrol-5-yl)-N-hydroxy-2-methyl-2-(methylsulfonyl)butanamide] |
| 0.031 µg/mL (≈ 0.0697 µM) | 0.25 µg/mL (≈ 0.562 µM) | 2 µg/mL (≈ 4.5 µM) | – | – | – | C[C@@](CCN1Cc2cc(C#CC#CC3(CO)CC3)ccc2C1=O)(C(=O)NO)S(C)(=O)=O [Example 12, (2R)—N-hydroxy-4-(5-((1-(hydroxymethyl)cyclopropyl)buta-1,3-diyn-1-yl)-1-oxoisoindolin-2-yl)-2-methyl-2-(methylsulfonyl)butanamide] |
| 1 µg/mL (≈ 1.97 µM) | 1 µg/mL (≈ 1.97 µM) | 1 µg/mL (≈ 1.97 µM) | – | – | – | CC(C)(O)CN1CC(C#CC#Cc2cc3c(s2)C(=O)N(CC[C@](C)(C(=O)NO)S(C)(=O)=O)C3)C1 [Example 25, (2R)—N-hydroxy-4-(2-((1-(2-hydroxy-2-methylpropyl)azetidin-3-yl)buta-1,3-diyn-1-yl)-6-oxo-4,6-dihydro-5H-thieno[2,3-c]pyrrol-5-yl)-2-methyl-2-(methylsulfonyl)butanamide] |
| 0.25 µg/mL (≈ 0.564 µM) | 1 µg/mL (≈ 2.25 µM) | 2 µg/mL (≈ 4.51 µM) | – | – | – | CNC1(C#CC#Cc2ccc3c(c2)CN(CC[C@](C)(C(=O)NO)S(C)(=O)=O)C3=O)CC1 [Example 7, (2R)—N-hydroxy-2-methyl-4-(5-((1-(methylamino)cyclopropyl)buta-1,3-diyn-1-yl)-1-oxoisoindolin-2-yl)-2-(methylsulfonyl)butanamide] |
| 0.125 µg/mL (≈ 0.26 µM) | 0.25 µg/mL (≈ 0.519 µM) | 1 µg/mL (≈ 2.08 µM) | – | – | – | CN1C[C@H](C#CC#Cc2cc3c(s2)C(=O)N(CC[C@](C)(C(=O)NO)S(C)(=O)=O)C3)[C@H]1CF [Example 41, (2R)-4-(2-(((2S,3S)-2-(fluoromethyl)-1-methylazetidin-3-yl)buta-1,3-diyn-1-yl)-6-oxo-4,6-dihydro-5H-thieno[2,3-c]pyrrol-5-yl)-N-hydroxy-2-methyl-2-(methylsulfonyl)butanamide] |
| 0.5 µg/mL (≈ 1.16 µM) | 1 µg/mL (≈ 2.33 µM) | 1 µg/mL (≈ 2.33 µM) | – | – | – | C[C@@](CCN1Cc2cc(C#CC#CC3(N)CC3)ccc2C1=O)(C(=O)NO)S(C)(=O)=O [Example 13, (2R)-4-(5-((1-aminocyclopropyl)buta-1,3-diyn-1-yl)-1-oxoisoindolin-2-yl)-N-hydroxy-2-methyl-2-(methylsulfonyl)butanamide] |
